Data on one molecule can be found in ChEMBL document CHEMBL1641363, “Fragment-based discovery of 6-substituted isoquinolin-1-amine based ROCK-I inhibitors” (Bioorg Med Chem Lett, 2011).

Structures are written as SMILES. Bounds are passed on as bounds.

The target in data set [1] is Voltage-gated inwardly rectifying potassium channel KCNH2 (Homo sapiens, UniProt Q12809). The data set can be described thus: Displacement of [3H]dofetilide from human ERG. On the technique in general: Displacement assays read how much labelled ligand stays bound in the presence of the test substance.
The nature of data set [2]: Half life in human liver microsome. Type of data set: ADME. To be noted: liver microsomes.
A short description of data set [3]: Permeability from apical to basolateral side of human Caco2 cells. To be noted: Caco-2, read-out: permeability. Type of data set: ADME, cell-based. (Caco-2 monolayers are a common model of the intestinal barrier.)
Data set [4] has as its target Casein kinase I isoform alpha (Homo sapiens) (UniProt P48729). To be noted: 10 uM.
Description: Inhibition of CK1 at 10 uM
Data set [5] addresses T1, Dual specificity tyrosine-phosphorylation-regulated kinase 3 (Homo sapiens) (UniProt O43781).
T1 sequence (whole entry): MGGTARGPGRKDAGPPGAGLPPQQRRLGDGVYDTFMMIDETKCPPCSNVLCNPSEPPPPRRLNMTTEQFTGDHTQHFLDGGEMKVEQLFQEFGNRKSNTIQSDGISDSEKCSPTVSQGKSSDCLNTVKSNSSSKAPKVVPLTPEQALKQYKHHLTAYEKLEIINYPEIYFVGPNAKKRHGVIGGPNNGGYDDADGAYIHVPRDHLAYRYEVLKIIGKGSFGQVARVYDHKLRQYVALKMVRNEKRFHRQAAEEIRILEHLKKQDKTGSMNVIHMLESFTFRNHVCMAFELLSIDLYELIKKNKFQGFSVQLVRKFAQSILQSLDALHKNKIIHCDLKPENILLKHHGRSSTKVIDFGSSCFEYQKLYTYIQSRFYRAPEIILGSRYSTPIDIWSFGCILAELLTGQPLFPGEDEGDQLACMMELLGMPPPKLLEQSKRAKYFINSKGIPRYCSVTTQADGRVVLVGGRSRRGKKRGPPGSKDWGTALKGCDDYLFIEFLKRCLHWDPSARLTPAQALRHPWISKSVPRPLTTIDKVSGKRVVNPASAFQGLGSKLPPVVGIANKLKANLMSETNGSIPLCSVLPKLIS
To be noted: 10 uM.
Description: Inhibition of DYRK3 at 10 uM

For data set [6], the target named is T2, Serine/threonine-protein kinase D2 (Homo sapiens) (UniProt Q9BZL6).
T2 sequence (whole entry): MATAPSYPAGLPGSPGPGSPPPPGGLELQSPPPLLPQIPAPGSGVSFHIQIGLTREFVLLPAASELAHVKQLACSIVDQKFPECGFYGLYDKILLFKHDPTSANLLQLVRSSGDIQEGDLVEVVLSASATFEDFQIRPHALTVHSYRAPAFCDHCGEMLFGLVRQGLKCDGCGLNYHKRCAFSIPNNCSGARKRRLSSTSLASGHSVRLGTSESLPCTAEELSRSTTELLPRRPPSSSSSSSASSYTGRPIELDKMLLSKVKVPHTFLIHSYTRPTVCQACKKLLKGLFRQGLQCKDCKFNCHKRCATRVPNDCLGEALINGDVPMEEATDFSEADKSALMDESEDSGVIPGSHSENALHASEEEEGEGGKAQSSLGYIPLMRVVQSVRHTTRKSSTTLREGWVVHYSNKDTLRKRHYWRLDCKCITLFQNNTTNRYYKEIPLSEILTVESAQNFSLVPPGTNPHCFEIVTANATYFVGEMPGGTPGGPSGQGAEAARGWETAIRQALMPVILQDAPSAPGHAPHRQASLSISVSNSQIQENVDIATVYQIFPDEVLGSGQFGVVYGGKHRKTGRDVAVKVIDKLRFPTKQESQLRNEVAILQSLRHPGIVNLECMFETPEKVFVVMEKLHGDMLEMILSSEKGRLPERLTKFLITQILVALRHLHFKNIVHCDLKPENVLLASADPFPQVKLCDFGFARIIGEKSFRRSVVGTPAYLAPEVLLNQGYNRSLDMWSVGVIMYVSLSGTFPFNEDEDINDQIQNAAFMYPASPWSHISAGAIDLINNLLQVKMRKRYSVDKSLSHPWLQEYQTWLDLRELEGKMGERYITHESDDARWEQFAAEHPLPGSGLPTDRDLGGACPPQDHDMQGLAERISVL
To be noted: 10 uM.
Description: Inhibition of PKD at 10 uM

Data set [7] has as its target T3, cAMP-dependent protein kinase catalytic subunit PRKX (Homo sapiens) (UniProt P51817).
T3 sequence (whole entry): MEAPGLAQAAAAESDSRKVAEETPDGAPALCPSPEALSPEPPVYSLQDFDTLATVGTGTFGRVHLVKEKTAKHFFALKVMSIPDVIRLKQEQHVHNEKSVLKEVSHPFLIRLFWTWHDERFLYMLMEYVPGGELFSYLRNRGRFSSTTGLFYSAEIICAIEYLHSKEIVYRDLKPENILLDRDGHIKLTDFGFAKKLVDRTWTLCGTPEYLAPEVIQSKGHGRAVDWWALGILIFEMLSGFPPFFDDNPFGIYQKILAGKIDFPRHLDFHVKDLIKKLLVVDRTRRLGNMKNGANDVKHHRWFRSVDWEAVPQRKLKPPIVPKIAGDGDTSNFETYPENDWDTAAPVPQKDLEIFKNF
The conditions noted are these: 10 uM.
Description: Inhibition of PRKX at 10 uM

In data set [8] the target is T4, Serine/threonine-protein kinase Sgk2 (Homo sapiens) (UniProt Q9HBY8).
T4 sequence (whole entry): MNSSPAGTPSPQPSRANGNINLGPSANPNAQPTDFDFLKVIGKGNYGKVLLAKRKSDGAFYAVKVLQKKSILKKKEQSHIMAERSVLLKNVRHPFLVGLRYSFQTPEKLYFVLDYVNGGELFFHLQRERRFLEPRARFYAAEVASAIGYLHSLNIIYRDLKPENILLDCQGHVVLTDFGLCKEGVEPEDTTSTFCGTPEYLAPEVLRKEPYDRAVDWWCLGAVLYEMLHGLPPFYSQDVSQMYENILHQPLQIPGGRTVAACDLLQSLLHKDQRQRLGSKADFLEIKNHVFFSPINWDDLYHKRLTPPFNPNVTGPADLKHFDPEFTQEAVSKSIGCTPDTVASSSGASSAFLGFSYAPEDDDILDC
To be noted: 10 uM.
Description: Inhibition of SGK2 at 10 uM

The term Ki denotes a measure of affinity in units of concentration, obtained from inhibition or displacement. Read a low Ki as higher affinity. A word on the half-life: it is the time in which the quantity being followed falls by half. Read a high half-life as slow loss. By inhibition is commonly meant the percentage by which the read-out fell short of the control. A low value points to little suppression.

Casein kinase I isoform alpha (Homo sapiens), sequence (P48729 2-337 limits assumed): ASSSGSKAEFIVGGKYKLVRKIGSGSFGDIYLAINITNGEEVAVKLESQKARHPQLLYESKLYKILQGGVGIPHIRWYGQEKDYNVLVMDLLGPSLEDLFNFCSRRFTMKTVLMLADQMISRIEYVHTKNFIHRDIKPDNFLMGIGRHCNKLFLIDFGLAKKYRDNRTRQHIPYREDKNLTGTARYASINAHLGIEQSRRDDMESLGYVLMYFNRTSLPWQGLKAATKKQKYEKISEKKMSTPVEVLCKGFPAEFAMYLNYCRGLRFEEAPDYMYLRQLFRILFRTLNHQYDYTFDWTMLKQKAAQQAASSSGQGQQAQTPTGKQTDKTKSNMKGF
Voltage-gated inwardly rectifying potassium channel KCNH2, sequence (Q12809 whole entry): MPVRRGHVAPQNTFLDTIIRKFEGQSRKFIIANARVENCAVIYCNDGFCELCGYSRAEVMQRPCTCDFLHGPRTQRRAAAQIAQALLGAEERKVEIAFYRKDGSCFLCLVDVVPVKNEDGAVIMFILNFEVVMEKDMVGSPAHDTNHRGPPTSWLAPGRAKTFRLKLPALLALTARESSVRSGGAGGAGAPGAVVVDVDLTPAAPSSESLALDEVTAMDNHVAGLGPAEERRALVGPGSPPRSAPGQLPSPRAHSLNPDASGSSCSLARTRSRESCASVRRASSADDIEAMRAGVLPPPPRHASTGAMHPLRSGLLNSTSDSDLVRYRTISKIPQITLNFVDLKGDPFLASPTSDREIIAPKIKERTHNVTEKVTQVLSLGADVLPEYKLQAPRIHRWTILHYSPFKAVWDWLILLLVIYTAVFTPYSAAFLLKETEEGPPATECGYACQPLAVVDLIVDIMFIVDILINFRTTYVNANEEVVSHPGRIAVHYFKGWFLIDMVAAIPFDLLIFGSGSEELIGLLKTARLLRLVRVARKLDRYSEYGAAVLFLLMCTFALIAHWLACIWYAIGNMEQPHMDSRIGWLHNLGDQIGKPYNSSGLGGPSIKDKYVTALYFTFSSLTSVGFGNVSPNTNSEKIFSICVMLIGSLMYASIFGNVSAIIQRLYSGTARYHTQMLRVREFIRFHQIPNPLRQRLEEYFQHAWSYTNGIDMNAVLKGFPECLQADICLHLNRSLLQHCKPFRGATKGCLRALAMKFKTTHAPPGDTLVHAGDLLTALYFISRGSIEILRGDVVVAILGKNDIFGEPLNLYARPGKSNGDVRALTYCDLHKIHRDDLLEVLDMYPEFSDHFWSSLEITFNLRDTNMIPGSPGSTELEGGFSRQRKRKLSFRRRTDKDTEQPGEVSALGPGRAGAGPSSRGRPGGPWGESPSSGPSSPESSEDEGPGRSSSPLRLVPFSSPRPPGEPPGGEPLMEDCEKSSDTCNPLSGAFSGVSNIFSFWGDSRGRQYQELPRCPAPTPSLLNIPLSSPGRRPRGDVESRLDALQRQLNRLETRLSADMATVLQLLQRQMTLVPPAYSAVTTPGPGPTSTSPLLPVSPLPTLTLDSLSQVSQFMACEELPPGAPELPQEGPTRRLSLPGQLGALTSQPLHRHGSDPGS

In data set [1], `Nc1nccc2cc(O[C@H]3CCCNC3)ccc12` gave a Ki of 20 µM. This molecule also showed a half-life in data set [2] of more than 2 h. Besides, the Papp A→B in data set [3] amounted to 6.3 ×10⁻⁶ cm/s. In addition, the inhibition in data set [4], in data set [5], in data set [6], in data set [7] and in data set [8] was more than 80% throughout.
